The record followed here is patent US20250115569A1, “SULFONAMIDE COMPOUNDS FOR THE TREATMENT OF NEUROLOGICAL CONDITIONS” (LARIO THERAPEUTICS LIMITED, priority 2021, published 2025).

The target of this assay is Cav2.3 (Homo sapiens, UniProt Q15878). The assay is described as follows: Human Cav2.3 channel calcium-influx assay. The assay is classed as cell-based. The following applies: Fluo8 fluorescence, HEK-293 T-Rex/Kir2.1/Cav2.3e cells, without pluronic acid, read-out: Cav2.3 (pIC50) (converted). An outline of the steps: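 HEK-293 T-Rex/Kir2.1 cells with doxycycline (0.2 μg/mL)-inducible Cav2.3e plus Cavβ4-α2δ1, loaded with Fluo8 NW in 0 mM K+ Tyrode's. Compounds (8 points, top 30 μM, half-log, 0.3% final DMSO, n=4) preincubated 3 min at RT, then depolarized with 20 mM KCl/2 mM CaCl2 (final); fluorescence read 130 s.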
Cav2.3, sequence (Q15878 whole entry, looked up): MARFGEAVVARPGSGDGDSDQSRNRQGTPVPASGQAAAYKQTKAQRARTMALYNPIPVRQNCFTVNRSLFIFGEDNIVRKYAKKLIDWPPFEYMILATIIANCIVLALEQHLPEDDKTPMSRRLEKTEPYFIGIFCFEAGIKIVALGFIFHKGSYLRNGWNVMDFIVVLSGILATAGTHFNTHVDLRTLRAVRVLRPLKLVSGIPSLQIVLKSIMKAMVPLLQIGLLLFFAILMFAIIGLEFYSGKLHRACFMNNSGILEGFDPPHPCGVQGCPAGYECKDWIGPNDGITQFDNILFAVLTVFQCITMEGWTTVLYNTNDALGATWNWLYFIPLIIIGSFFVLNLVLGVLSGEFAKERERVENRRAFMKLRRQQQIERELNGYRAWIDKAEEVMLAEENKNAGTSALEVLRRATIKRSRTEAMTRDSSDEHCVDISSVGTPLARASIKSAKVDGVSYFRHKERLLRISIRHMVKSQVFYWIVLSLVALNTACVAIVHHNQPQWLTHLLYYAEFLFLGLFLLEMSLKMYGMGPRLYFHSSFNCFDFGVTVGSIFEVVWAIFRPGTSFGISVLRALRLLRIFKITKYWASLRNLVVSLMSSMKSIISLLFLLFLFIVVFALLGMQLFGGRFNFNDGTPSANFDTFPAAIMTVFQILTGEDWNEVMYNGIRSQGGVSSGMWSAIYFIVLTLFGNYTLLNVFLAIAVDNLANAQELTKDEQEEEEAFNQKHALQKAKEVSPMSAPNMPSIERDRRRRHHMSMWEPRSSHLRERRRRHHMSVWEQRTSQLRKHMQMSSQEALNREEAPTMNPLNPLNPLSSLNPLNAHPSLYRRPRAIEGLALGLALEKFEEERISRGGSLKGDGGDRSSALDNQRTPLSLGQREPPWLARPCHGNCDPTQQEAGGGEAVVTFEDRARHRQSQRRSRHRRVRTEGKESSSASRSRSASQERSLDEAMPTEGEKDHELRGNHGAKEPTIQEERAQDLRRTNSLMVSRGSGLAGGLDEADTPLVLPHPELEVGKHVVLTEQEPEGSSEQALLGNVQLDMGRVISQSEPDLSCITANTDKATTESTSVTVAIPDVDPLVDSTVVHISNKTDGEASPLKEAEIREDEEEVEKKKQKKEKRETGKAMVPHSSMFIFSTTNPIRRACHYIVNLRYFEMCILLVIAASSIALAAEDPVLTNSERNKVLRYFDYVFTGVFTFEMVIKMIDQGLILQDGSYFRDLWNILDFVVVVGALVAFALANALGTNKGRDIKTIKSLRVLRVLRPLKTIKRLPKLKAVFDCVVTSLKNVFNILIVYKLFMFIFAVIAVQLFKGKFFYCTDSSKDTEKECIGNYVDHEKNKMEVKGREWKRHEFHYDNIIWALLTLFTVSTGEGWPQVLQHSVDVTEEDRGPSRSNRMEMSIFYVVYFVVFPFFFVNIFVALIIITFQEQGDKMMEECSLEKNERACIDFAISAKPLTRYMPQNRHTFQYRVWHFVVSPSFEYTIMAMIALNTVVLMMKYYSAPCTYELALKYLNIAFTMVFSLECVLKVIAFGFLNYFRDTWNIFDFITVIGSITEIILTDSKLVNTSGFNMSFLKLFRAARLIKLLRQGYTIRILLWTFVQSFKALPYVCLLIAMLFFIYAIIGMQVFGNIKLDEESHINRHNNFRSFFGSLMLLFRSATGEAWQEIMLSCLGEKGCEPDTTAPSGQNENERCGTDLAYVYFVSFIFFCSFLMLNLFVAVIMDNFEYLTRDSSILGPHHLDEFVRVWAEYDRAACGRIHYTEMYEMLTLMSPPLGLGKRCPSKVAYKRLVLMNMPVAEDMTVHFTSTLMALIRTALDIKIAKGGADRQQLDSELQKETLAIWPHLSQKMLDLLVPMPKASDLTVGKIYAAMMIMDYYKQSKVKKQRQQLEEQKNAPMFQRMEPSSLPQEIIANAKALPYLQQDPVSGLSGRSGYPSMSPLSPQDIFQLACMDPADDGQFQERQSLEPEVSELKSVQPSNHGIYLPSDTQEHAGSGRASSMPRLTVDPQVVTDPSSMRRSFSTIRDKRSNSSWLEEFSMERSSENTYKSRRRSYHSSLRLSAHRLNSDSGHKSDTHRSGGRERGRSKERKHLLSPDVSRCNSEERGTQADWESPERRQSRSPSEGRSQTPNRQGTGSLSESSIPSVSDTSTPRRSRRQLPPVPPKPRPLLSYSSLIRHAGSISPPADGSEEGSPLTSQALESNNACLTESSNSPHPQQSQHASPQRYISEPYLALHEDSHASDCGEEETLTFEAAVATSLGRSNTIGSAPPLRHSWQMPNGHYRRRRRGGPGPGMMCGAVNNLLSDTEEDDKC
As to `CN([C@H](c1ccc(Cl)cc1)C(F)(F)F)S(=O)(=O)c1ccn2ccnc2c1` [Example 194, (R)—N-(1-(4-chlorophenyl)-2,2,2-trifluoroethyl)-N-methylimidazo[1,2-a]pyridine-7-sulfonamide], the IC50 is 240 nM.
As for `CN([C@H](c1ccc(F)cc1)C(F)(F)F)S(=O)(=O)c1cnc2ccnn2c1` [Example 183, (R)—N-methyl-N-(2,2,2-trifluoro-1-(4-fluorophenyl)ethyl)pyrazolo[1,5-a]pyrimidine-6-sulfonamide], the IC50 was 240 nM.
As for `CCN([C@H](c1ccc(F)cc1)C(F)(F)F)S(=O)(=O)c1cnc2c(C#N)cnn2c1` [Example 141, (R)-3-cyano-N-ethyl-N-(2,2,2-trifluoro-1-(4-fluorophenyl)ethyl)pyrazolo[1,5-a]pyrimidine-6-sulfonamide], the figure is 575 nM; as for `CN([C@H](c1ccc(Cl)cc1)C(F)(F)F)S(=O)(=O)c1cc2nncn2cn1` [Example 204, (R)—N-(1-(4-chlorophenyl)-2,2,2-trifluoroethyl)-N-methyl-[1,2,4]triazolo[4,3-c]pyrimidine-7-sulfonamide], 759 nM.
For `CCN([C@H](c1ccc(F)cc1)C(F)(F)F)S(=O)(=O)c1nn(CC)c2cccnc12` [Example 173, (R)—N,1-diethyl-N-(2,2,2-trifluoro-1-(4-fluorophenyl)ethyl)-1H-pyrazolo[4,3-b]pyridine-3-sulfonamide], the IC50 is 11200 nM.
In the case of `CCN([C@H](c1ccc(F)cc1)C(F)(F)F)S(=O)(=O)c1cnnc(OC)c1` [Example 123, (R)—N-ethyl-6-methoxy-N-(2,2,2-trifluoro-1-(4-fluorophenyl)ethyl)pyridazine-4-sulfonamide] it was 166 nM; in that of `CCN([C@H](c1ccc(F)cc1)C(F)(F)F)S(=O)(=O)c1ccc2nccn2c1` [Example 146, (R)—N-ethyl-N-(2,2,2-trifluoro-1-(4-fluorophenyl)ethyl)imidazo[1,2-a]pyridine-6-sulfonamide], 17.4 nM; in that of `CCN(C(c1ccc(F)cc1)C(F)(F)F)S(=O)(=O)c1ccc(C(N)=O)s1` (centres unmarked) [Example 22, 5-(N-ethyl-N-(2,2,2-trifluoro-1-(4-fluorophenyl)ethyl)sulfamoyl)thiophene-2-carboxamide], 741 nM.
In the case of `CCN(C(c1ccc(F)cc1)C(F)(F)F)S(=O)(=O)c1csc(C(=O)OC)n1` (centres unmarked) [Example 48, methyl 4-(N-ethyl-N-(2,2,2-trifluoro-1-(4-fluorophenyl)ethyl)sulfamoyl)thiazole-2-carboxylate] it was 2000 nM; in that of `CCN([C@H](c1ccc(F)cc1)C(F)(F)F)S(=O)(=O)c1nc2ccccn2c1Cl` [Example 143, (R)-3-chloro-N-ethyl-N-(2,2,2-trifluoro-1-(4-fluorophenyl)ethyl)imidazo[1,2-a]pyridine-2-sulfonamide], 4170 nM.
In the case of `CCN([C@H](c1ccc(C(F)(F)F)c(C)c1)C(F)(F)F)S(=O)(=O)c1cncc(F)c1` [Example 271, (R)—N-ethyl-5-fluoro-N-(2,2,2-trifluoro-1-(3-methyl-4-(trifluoromethyl)phenyl)ethyl)pyridine-3-sulfonamide] it was 162 nM; in that of `CCN([C@H](c1ccc(OC(F)(F)F)cc1)C(F)(F)F)S(=O)(=O)c1cncc(C#N)c1` [Example 119, (R)-5-Cyano-N-ethyl-N-(2,2,2-trifluoro-1-(4-(trifluoromethoxy)phenyl)ethyl)pyridine-3-sulfonamide], 87.1 nM.
For the molecule `CCN([C@H](c1ccc(F)cc1)C(F)(F)F)S(=O)(=O)c1ccn2nnnc2c1` [Example 158, (R)—N-ethyl-N-(2,2,2-trifluoro-1-(4-fluorophenyl)ethyl)tetrazolo[1,5-a]pyridine-7-sulfonamide], the IC50 is 275 nM.
For `CCN([C@@H](c1ccc(F)cc1)C(F)(F)F)S(=O)(=O)c1cnnc(OC)c1` [Example 122, (S)—N-ethyl-6-methoxy-N-(2,2,2-trifluoro-1-(4-fluorophenyl)ethyl)pyridazine-4-sulfonamide], the IC50 was 7240 nM.
In the case of `CCN(C(c1ccc(F)cc1)C(F)(F)F)S(=O)(=O)c1csc(C#N)n1` (centres unmarked) [Example 50, 2-cyano-N-ethyl-N-(2,2,2-trifluoro-1-(4-fluorophenyl)ethyl)thiazole-4-sulfonamide] it was 240 nM; in that of `CN([C@H](c1ccc(OC(F)F)cc1)C(F)(F)F)S(=O)(=O)c1cncc(C#N)c1` [Example 240, (R)-5-cyano-N-(1-(4-(difluoromethoxy)phenyl)-2,2,2-trifluoroethyl)-N-methylpyridine-3-sulfonamide], 162 nM.
With `CCN([C@H](c1ccc(F)cc1)C(F)(F)F)S(=O)(=O)c1ccc2nnc(C(F)(F)F)n2n1` [Example 169, (R)—N-ethyl-N-(2,2,2-trifluoro-1-(4-fluorophenyl)ethyl)-3-(trifluoromethyl)-[1,2,4]triazolo[4,3-b]pyridazine-6-sulfonamide], the IC50 is 5750 nM.
With `CCN(C(c1ccc(F)cc1)C(F)(F)F)S(=O)(=O)c1ccc(C#N)s1` (centres unmarked) [Example 21, 5-cyano-N-ethyl-N-(2,2,2-trifluoro-1-(4-fluorophenyl)ethyl)thiophene-2-sulfonamide], the IC50 is 437 nM.
For the molecule `CCN(C(c1ccc(F)cc1)C(F)(F)F)S(=O)(=O)c1csc(C(N)=O)n1` (centres unmarked) [Example 49, 4-(N-ethyl-N-(2,2,2-trifluoro-1-(4-fluorophenyl)ethyl)sulfamoyl)thiazole-2-carboxamide], the IC50 is 339 nM.
For the molecule `CCN(C(c1ccc(F)cc1)C(F)(F)F)S(=O)(=O)c1cncc(C(N)=O)c1` (centres unmarked) [Example 51, 5-(N-ethyl-N-(2,2,2-trifluoro-1-(4-fluorophenyl)ethyl)sulfamoyl)nicotinamide], the IC50 is 372 nM.
As for `CCN(C(c1ccc(F)cc1)C(F)(F)F)S(=O)(=O)c1cc(N2CCOCC2)cs1` (centres unmarked) [Example 92, N-ethyl-4-morpholino-N-(2,2,2-trifluoro-1-(4-fluorophenyl)ethyl)thiophene-2-sulfonamide], the figure is 1320 nM.
Regarding `CCN(C(c1ccc(F)cc1)C(F)(F)F)S(=O)(=O)c1cncc(C(C)=O)c1` (centres unmarked) [Example 120, 5-acetyl-N-ethyl-N-(2,2,2-trifluoro-1-(4-fluorophenyl)ethyl)pyridine-3-sulfonamide], the IC50 was 132 nM.
As for `CCN(C(c1ccc(F)cc1)C(F)(F)F)S(=O)(=O)c1cncc(C2COC2)c1` (centres unmarked) [Example 99, N-ethyl-5-(oxetan-3-yl)-N-(2,2,2-trifluoro-1-(4-fluorophenyl)ethyl)pyridine-3-sulfonamide], the figure is 275 nM; as for `CCN([C@H](c1ccc(F)cc1)C(F)(F)F)S(=O)(=O)c1cn2ccnc2cn1` [Example 198, (R)—N-ethyl-N-(2,2,2-trifluoro-1-(4-fluorophenyl)ethyl)imidazo[1,2-a]pyrazine-6-sulfonamide], 324 nM.
As for `Cc1ccc([C@@H](N(C)S(=O)(=O)c2cncc(F)c2)C(F)(F)F)cc1` [Example 222, (R)-5-fluoro-N-methyl-N-(2,2,2-trifluoro-1-(p-tolyl)ethyl)pyridine-3-sulfonamide], the figure is 245 nM; as for `[2H][C@@](c1ccc(Cl)cc1)(N(C)S(=O)(=O)c1cncc(C#N)c1)C(F)(F)F` [Example 242, N-(1-(4-chlorophenyl)-2,2,2-trifluoroethyl-1-d)-5-cyano-N-methylpyridine-3-sulfonamide], 35.5 nM.
